The values that follow come from US20230173090A1, “COMPOSITIONS AND METHODS FOR MODULATING DOPAMINE RECEPTOR ACTIVITY” (The Regents of the University of California, priority 2020, published 2023).

One assay has as its target T1, D1R (Homo sapiens, UniProt P21728).
T1 construct: expressed in transfected cells; host or cells: HEK293T (A1, A2); HEK293 (A26)
The experiment in a line: D1R-mediated GIRK channel activation assay in HEK293T cells (whole-cell electrophysiology). It counts as cell-based. Here is the method:
All constructs were cloned into mammalian expression vectors. For the receptor mediated-GIRK activation assay, HEK293T cells were seeded onto 18 mm coverslips and transiently transfected overnight with Lipofectamine 2000 and the following constructs: a receptor, a variant of the membrane-anchor (M; 0.7 µg), GIRK1(F137S) (0.7 µg), and tdTomato (0.2 µg). […] D1R, D5R, or opto-D1R were cotransfected with Gαis13 (0.35 µg), D3R with GαoA (0.7 µg), and M1R or mGluR1 with Gαiq5. Transfected cells were used for electrophysiology, imaging, or flow cytometry experiments.
HEK293T cells were sparsely seeded and maintained in DMEM (Invitrogen) with 10% fetal bovine serum on poly-L-lysine-coated coverslips at 37° C. and 5% CO2. HEK293T cells were voltage clamped in whole-cell configuration 16-48 hours after transfection. […] GluK2 electrophysiology was performed in the presence of 0.3 mg/mL concanavalin A to prevent desensitization. […] Cells were voltage clamped to -60 or -80 mV using an Axopatch 200A (Molecular Devices) amplifier.
For all experiments, compounds were applied using a gravity-driven perfusion system and illumination was applied to the entire field of view using a Polychrome V monochromator (TILL Photonics) through a 20x objective (maximum 0.05 mW/mm^2 at 370 nm and 0.5 mW/mm^2 at 460 nm or 473 nm) or a DG4 (Sutter) through a 20x objective (maximum 0.06 mW/mm^2 at 370 nm and 0.6 mW/mm^2 at 445 nm). pClamp software was used for both data acquisition and control of illumination.
The selection criteria for electrophysiological experiments are that a cell (i) expresses the fluorescent protein transfection marker, and (ii) responds to agonist, indicating the presence of either receptor and GIRK or an LGIC. Cells were not excluded unless the recording was of poor quality (e.g., unstable baseline).
Data were analyzed using GraphPad Prism (GraphPad), Clampfit (Axon instruments), Origin (OriginLab), MATLAB, or ImageJ software. For dose-response curves, data were normalized to vehicle (0%) and DA (100%) and nonlinear regression analysis was performed using the sigmoidal dose-response function in GraphPad Prism. Statistical analyses were performed using GraphPad Prism. All values reported are mean ± S.E.M.
FIGS. 9A-9H. Functional properties of untethered P-D1ago. (A) Schematic representation of a D1R-mediated G protein-coupled inwardly rectifying potassium (GIRK) channel assay in HEK293T cells. Agonist-induced receptor activation results in the recruitment of a heterotrimeric G protein containing the chimeric Gα subunit (Gαis) followed by the release of Gβγ, which activates GIRK channels and enhances inward-current. […] (E) Schematic representation of a highly sensitive D1R-mediated cAMP accumulation assay in HEK293T cells. Agonist-induced D1R activation results in Gs/olfrecruitment followed by the binding of its Gα subunit to adenylate cyclase (AC), which enhances the conversion of ATP to cAMP. cAMP binds the bioluminescence resonance energy transfer 1 (BRET′)-based cAMP sensor CAMYEL^87, resulting in a conformational change in its Epac domain that increases the distance and decreases BRET^1 between the donor Renilla luciferase (Rluc) and the acceptor YFP. […] Optimization and characterization of the D1R MP

In another assay the target is T2, SNAP-D1R (Homo sapiens, UniProt P21728).
T2 construct: expressed in transfected cells; host or cells: HEK293T
T2 sequence (P21728 with tags, fused parts or gaps): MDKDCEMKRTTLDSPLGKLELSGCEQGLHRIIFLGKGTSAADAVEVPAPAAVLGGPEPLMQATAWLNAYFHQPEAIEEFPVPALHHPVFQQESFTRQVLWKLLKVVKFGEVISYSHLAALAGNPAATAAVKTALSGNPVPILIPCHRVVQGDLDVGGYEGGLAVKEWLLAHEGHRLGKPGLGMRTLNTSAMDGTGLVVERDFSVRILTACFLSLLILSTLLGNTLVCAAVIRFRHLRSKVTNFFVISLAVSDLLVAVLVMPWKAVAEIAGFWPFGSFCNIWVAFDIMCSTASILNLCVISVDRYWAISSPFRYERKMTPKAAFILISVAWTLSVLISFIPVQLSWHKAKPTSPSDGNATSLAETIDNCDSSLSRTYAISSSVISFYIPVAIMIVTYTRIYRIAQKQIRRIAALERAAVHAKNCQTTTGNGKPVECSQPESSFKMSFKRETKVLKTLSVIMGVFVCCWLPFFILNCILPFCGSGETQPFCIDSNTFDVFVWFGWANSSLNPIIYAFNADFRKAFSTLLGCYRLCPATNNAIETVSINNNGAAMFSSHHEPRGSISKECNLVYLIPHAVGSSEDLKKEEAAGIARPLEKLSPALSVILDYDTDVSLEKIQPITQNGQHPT
The experiment in a line: SNAP-D1R photoactivation, GIRK assay in HEK293T cells. Conditions: P-D1ago tethered to SNAP-tag fused to the N-terminus of D1R. It counts as cell-based. An excerpt:
To test the ability of P-D1ago to photo-activate D1R, it was attached directly to a version of D1R that has SNAP fused to its extracellular N-terminus, which is adjacent to the ligand binding site of the receptor. SNAP-D1R was co-expressed in HEK293T cells with the G protein-coupled inwardly rectifying potassium (GIRK) channel as an effector. […] P-D1ago was attached to the M, which was co-expressed in HEK293T cells with the native D1R and the GIRK channel. […] To optimize D1R photoactivation, the geometric positioning of P-D1ago was adjusted using variants of M with “lift” peptides between the SNAP-tag and transmembrane segment. Photoactivation increased with an M variant containing a rigid, α-helical EAAAK (SEQ ID NO: 13) peptide (MEAAAK (SEQ ID NO: 16); FIG. 2B, C, and E) and decreased as the lift peptide was further extended (FIGS. 11D-11F), presumably because P-D1ago “rises” too far from the cell surface.
FIGS. 10A-10C. […] (A) Schematic representation of P-D1ago tethered to a SNAP-tag fused directly to the extracellular N-terminus of D1R. (B) Representative trace of SNAP-D1R photoactivation by P-D1ago according to the GIRK assay. […] (C) Summary of SNAP-D1R photoactivation by P-D1ago relative to a saturating concentration of DA (10 µM). n = 5 cells.

T1 sequence (P21728 whole entry): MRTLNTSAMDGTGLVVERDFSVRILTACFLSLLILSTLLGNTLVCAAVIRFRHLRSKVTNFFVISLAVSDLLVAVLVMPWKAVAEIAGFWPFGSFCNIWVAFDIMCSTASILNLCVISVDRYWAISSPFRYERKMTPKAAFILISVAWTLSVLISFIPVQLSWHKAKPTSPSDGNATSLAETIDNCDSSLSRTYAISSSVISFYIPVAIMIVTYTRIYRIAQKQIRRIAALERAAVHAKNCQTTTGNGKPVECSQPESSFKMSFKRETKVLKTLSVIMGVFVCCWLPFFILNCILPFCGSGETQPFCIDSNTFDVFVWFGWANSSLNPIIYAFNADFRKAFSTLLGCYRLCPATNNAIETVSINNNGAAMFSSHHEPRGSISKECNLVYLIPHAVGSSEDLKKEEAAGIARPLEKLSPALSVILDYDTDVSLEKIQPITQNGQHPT

For the compound `CCCN(CCc1ccc(N=Nc2ccc(NC(=O)CNC(=O)CCOCCOCCOCCOCCOCCOCCOCCOCCOCCOCCOCCOCCn3cc(CCC(=O)NCc4ccc(COc5nc(N)nc6nc[nH]c56)cc4)nn3)cc2)cc1)C1CCc2c(O)cccc2C1` (stereo not drawn) [P-D1ago, Benzylguanine-azobenzene-PPHT], the “effect of untethered P-D1ago on D1R in the GIRK assay” value on D1R (absence of the membrane-anchor (M), 1 µM or 10 µM, trans (blue light) or cis (UV light)) is listed as “Neither 1 µM or 10 µM P-D1ago, concentrations that fully label the M (FIG. 8D), have any effect on the receptor”. The “D1R activation by P-D1ago tethered to MEAAAK” value at D1R (tethered to MEAAAK (SEQ ID NO:16), blue light) is recorded as “only partially activates D1R”. Also, on D1R (tethered to MEAAAK, 100 nM and 1 µM DA), the “D1R activation in the presence of sub-saturating DA” value is given as “further activated D1R”. The “effect on the ability of DA to activate D1R” value on D1R (tethered to MEAAAK, saturating DA (10 µM)) is listed as “did not diminish the ability of DA to fully activate D1R”. Further, the “photoactivation of D1R by P-D1ago tethered to the M” value on D1R (tethered to the M, relative to a saturating concentration of DA) was “partially photoactivated with blue light (460 nm) and is deactivated with UV light (370 nm)”. The SNAP-D1R photoactivation entry on SNAP-D1R is “photoactivates D1R in response to blue light and is deactivated with UV light”.
